Source: US5691348A, “Pyridyl imidazole derivatives and processes for the preparation thereof” (Daewoo Electronics Co., Ltd., priority 1994, dated 1997)

Assays:
angiotensin II receptor = assay: Angiotensin II receptor binding assay ([3H] angiotensin II); parameters: species or system rat (Sprague-Dawley adrenal cortex/medulla; Wistar liver); conditions: 25° C., 60 minutes, test concentration not given
Experimental: 1. Angiotensin II receptor binding assay
In accordance with the procedure disclosed in Chiu, A. T. et al., Eur. J. Pharm., 157, 13(1981), a ligand marked with a radioisotope was reacted with an angiotensin II receptor and the reactant was filtered with a glass fiber to remove unreacted ligand. After washing the filter, the amount of the remaining isotope was measured to determine the binding activity of the ligand, as described below in detail.
Sprague-Dawley rats and Wistar rats of 250 to 350 g (from The Korea Research Institute of Chemical Technology) were tested and the test procedures were carried out at 4° C., unless otherwise specified. Adrenal gland was separated from the Sprague-Dawley rats (liver, in the case of Wistar rats) into cortex and medulla. The separated adrenal cortex and medulla were washed with a sucrose buffer solution (0.2M sucrose, 1 mM EDTA, 10 mM Tris, Ph 7.2) and homogenized in the same buffer solution by using a Teflon pestle and a Brinkmann homogenizer. The homogenates were centrifuged at 3,000× g for 10 minutes to remove precipitates and further centrifuged at 12,000× g for 13 minutes. The final supernatants were centrifuged at 102,000× g for 1 hour to obtain precipitates, which were washed with a Tris buffer solution (50 mM Tris, 5 mM MgCl2, pH 7.2) and recentrifuged at 102,000× g for 1 hour. The resulting precipitates were immediately processed at the following step or stored at -70° C.
The precipitates were suspended in a Tris buffer solution. The amount of protein was determined by using a Bio-Rad DC protein analyzing kit and the protein concentration was adjusted to the amounts of: 0.2 to 0.3 mg/ml (Sprague-Dawley rat: adrenal cortex), 1.5 to 2.0 mg/ml (Sprague-Dawley rat: adrenal medulla), and 1.5 to 2.0 mg/ml (Wistar rat: liver). To the suspension, bovine serum albumin(BSA) was added to a concentration of 0.25 wt % and the resultant was immediately processed at the following step or stored at -70° C.
50 μl (based on ligand) of [^3 H] angiotensin II (NEN, NET-446) and 10 μl of each of the test compounds with various concentrations were added to the buffer solution (50 mM Tris (pH 7.2), 5 mM MgCl2, 0.25% BSA) to adjust the final volume to be 0.5 ml. 100 μl of the receptor suspension was added thereto and the resulting solution was reacted for 60 minutes while stirring in a water bath at 25° C. 3 ml of cold buffer solution for analysis was added to cease the reaction. The isotope which was bound to the receptor was isolated from the resultant by using Brandel Cell Harvester System with Whatman glass fiber GF/C. After washing the filter, the radioactivity of the filter was determined by using a liquid scintillation counter. Binding inhibition(%) of the test compound was calculated as follows:
Binding Inhibition(%)=[{(T-B)-(S-B)}/(T-B)]×100
wherein T is the radioactivity (cpm) of the reaction product untreated with the test compound, S is the radioactivity (cpm) of the reaction product treated with the test compound, and B is the radioactivity (cpm) of blank test.

unanesthetized dogs = assay: Maximum blood pressure lowering effect in unanesthetized dogs at different amounts; type: in vivo, dog
Experimental: (§1) A number of dog was fed freely in a feeding room and those weighing 7 to 12 kg in good health were selected regardless of their gender.
(§2) The test dog was anesthetized with 30 mg/kg of pentobarbital sodium by intravenous injection and the left femoral artery and femoral vein were separated carefully. Silicone catheter, specially prepared and filled with saline treated with heparin (1,000 IU/ml), was cannulated into the blood vessels. After the surgery, the dog was constrained to measure the blood pressure continuously with Gould 2000 physiograph adapted to a Grass P23XL pressure transducer; and the heart rate was monitored with ECG/Biotacho amplifier. The dog was tested at least 2 days after the surgery.
(§3) 10 mg/kg of furosemide was injected intramuscularly 18 hours (in case of intravenous injection, 2 hours) before the beginning of the test (administration of the test compound) to improve the activity of renin in blood plasma. After the injection of furosemide, neither food nor water was provided. The test compound was suspended in Tween 80 and administered in an amount of 20 mg/kg orally. The blood pressure and heart rate were measured up to 8 hours after the administration of each test compound.
The maximum blood pressure lowering effect of the present compounds and the control compounds were determined in different amounts of administration using the same method as (i) and the results are given in Table 4.

[1] = test system: furosemide-administered dogs; assay: Duration of action in furosemide-administered dogs; type: in vivo, dog; conditions: 0.3 mg oral
Experimental: as §1, §2
as §3, with “The test compound was suspended in Tween 80 and administered in an amount of 20 mg/kg orally.” left out
The compound of Example 1 and the Merck compound were administered orally to the furosemide-administrated dogs as in test 3(i), and blood pressure lowering effect was measured with time.

Binding Inhibition (angiotensin II receptor): 85.4%
Structure (SMILES): CCCCc1nc2cc(-c3cccc[n+]3[O-])c(CO)nc2n1Cc1ccc(-c2ccccc2-c2nn[nH]n2)cc1 [Example 1, 2-Butyl-5-hydroxymethyl-6-(1-oxy-pyridin-2-yl)-3-[2'-(1H-tetrazol-5-yl)-biphenyl-4-ylmethyl]-3H-imidazo[4,5-b]pyridine]
Maximum Blood Pressure Lowering Effect (unanesthetized dogs; 0.3 mg/kg): -17%
Maximum Blood Pressure Lowering Effect (unanesthetized dogs; 1 mg/kg): -25%
Maximum Blood Pressure Lowering Effect ([1]; 0 min): 0.0%
Maximum Blood Pressure Lowering Effect ([1]; 10 min): 2.2%
Maximum Blood Pressure Lowering Effect ([1]; 20 min): -1.1%
Maximum Blood Pressure Lowering Effect ([1]; 30 min): -5.9%
Maximum Blood Pressure Lowering Effect ([1]; 60 min): -11.4%
Maximum Blood Pressure Lowering Effect ([1]; 90 min): -12.9%
Maximum Blood Pressure Lowering Effect ([1]; 120 min): -14.8%
Maximum Blood Pressure Lowering Effect ([1]; 150 min): -16.1%
Maximum Blood Pressure Lowering Effect ([1]; 180 min): -16.7%
Maximum Blood Pressure Lowering Effect ([1]; 210 min): -17.4%
Maximum Blood Pressure Lowering Effect ([1]; 240 min): -18.2%
Maximum Blood Pressure Lowering Effect ([1]; 270 min): -17.0%
Maximum Blood Pressure Lowering Effect ([1]; 300 min): -20.5%
Maximum Blood Pressure Lowering Effect ([1]; 330 min): -20.7%
Maximum Blood Pressure Lowering Effect ([1]; 360 min): -20.4%
Maximum Blood Pressure Lowering Effect ([1]; 390 min): -20.1%
Maximum Blood Pressure Lowering Effect ([1]; 420 min): -20.5%
Maximum Blood Pressure Lowering Effect ([1]; 450 min): -20.5%
Maximum Blood Pressure Lowering Effect ([1]; 480 min): -20.0%
time for which the maximum blood pressure lowering effect lasted after the administration ([1]; Table 6, dogs): up to 8 hours
